Test results taken from patent publication US9073940B2, “Tricyclic pyrazol amine derivatives” (MERCK SERONO SA, priority 2009, dated 2015).

test system: 4 PI3K isoforms (Human recombinant GST-PI3K); test: PI3K scintillation proximity assay, best IC50 obtained with the four isoforms (alpha, beta, delta, gamma); assay type: biochemical; conditions: best IC50 obtained with the four isoforms of PI3K; read-out: Best potency measured on the 4 PI3K isoforms

Compound	IC50 [nM]
O=C(c1nn(C2CCCN(CCN3CCC(F)CC3)C2)c2c1CS(=O)(=O)c1ccccc1-2)N1CCOCC1 (stereo not drawn) [Example 281, 1-{1-[2-(4-Fluoropiperidin-1-yl)ethyl]piperidin-3-yl}-3-(morpholin-4-ylcarbonyl)-1,4-dihydrothiochromeno[4,3-c]pyrazole 5,5-dioxide]	34
O=C(c1nn(C2CCN(CCC3CCOCC3)CC2)c2c1CS(=O)(=O)c1ccccc1-2)N1CCOCC1 [Example 285, 3-(morpholin-4-ylcarbonyl)-1-{1-[2-(tetrahydro-2H-pyran-4-yl)ethyl]piperidin-4-yl}-1,4-dihydrothiochromeno[4,3-c]pyrazole 5,5-dioxide]	692
O=C(c1nn(C2CCN(CCn3cccn3)C2)c2c1CS(=O)(=O)c1ccccc1-2)N1CCOCC1 (stereo not drawn) [Example 286, 3-(Morpholin-4-ylcarbonyl)-1-{1-[2-(1H-pyrazol-1-yl)ethyl]pyrrolidin-3-yl}-1,4-dihydrothiochromeno[4,3-c]pyrazole 5,5-dioxide]	257
CC(=O)Nc1nc2c(s1)S(=O)(=O)Cc1c(C(=O)N3CCOCC3)nn(C3CCOCC3)c1-2 [Example 289, N-[3-(Morpholin-4-ylcarbonyl)-5,5-dioxido-1-(tetrahydro-2H-pyran-4-yl)-1,4-dihydropyrazolo[3′,4′:4,5]thiopyrano[3,2-d][1,3]thiazol-7-yl]acetamide]	284
O=C(c1nn(C2CCN(CCN3CCOCC3)CC2)c2c1CS(=O)(=O)c1ccccc1-2)N1CCOCC1 [Example 290, 3-(Morpholin-4-ylcarbonyl)-1-[1-(2-morpholin-4-ylethyl)piperidin-4-yl]-1,4-dihydrothiochromeno[4,3-c]pyrazole 5,5-dioxide]	369
O=C(c1nn(-c2cccc(Cn3ccnc3)c2)c2c1CS(=O)(=O)c1ccccc1-2)N1CCOCC1 [Example 291, 1-[3-(1H-imidazol-1-ylmethyl)phenyl]-3-(morpholin-4-ylcarbonyl)-1,4-dihydrothiochromeno[4,3-c]pyrazole 5,5-dioxide]	673
O=C(c1nn(C2CCCN(C3CCOCC3)C2)c2c1CS(=O)(=O)c1ccccc1-2)N1CCOCC1 (stereo not drawn) [Example 293, 3-(Morpholin-4-ylcarbonyl)-1-[1-(tetrahydro-2H-pyran-4-yl)piperidin-3-yl]-1,4-dihydrothiochromeno[4,3-c]pyrazole 5,5-dioxide]	254
Cc1nc(CN2CCCC(n3nc(C(=O)N4CCOCC4)c4c3-c3ccccc3S(=O)(=O)C4)C2)no1 (stereo not drawn) [Example 295, 1-{1-[(5-Methyl-1,2,4-oxadiazol-3-yl)methyl]piperidin-3-yl}-3-(morpholin-4-ylcarbonyl)-1,4-dihydrothiochromeno[4,3-c]pyrazole 5,5-dioxide]	134
O=C(c1nn(C2CCCN(CCCn3cccc3)C2)c2c1CS(=O)(=O)c1ccccc1-2)N1CCOCC1 (stereo not drawn) [Example 296, 3-(Morpholin-4-ylcarbonyl)-1-{1-[3-(1H-pyrrol-1-yl)propyl]piperidin-3-yl}-1,4-dihydrothiochromeno[4,3-c]pyrazole 5,5-dioxide]	90
O=C(c1nn(C2CCN(C3CCOCC3)C2)c2c1CS(=O)(=O)c1c(F)cccc1-2)N1CCOCC1 (stereo not drawn) [Example 298, 6-Fluoro-3-(morpholin-4-ylcarbonyl)-1-[1-(tetrahydro-2H-pyran-4-yl)pyrrolidin-3-yl]-1,4-dihydrothiochromeno[4,3-c]pyrazole 5,5-dioxide]	29
CC(=O)OCCN1CCC(n2nc(C(=O)N3CCOCC3)c3c2-c2ccccc2S(=O)(=O)C3)C1 (stereo not drawn) [Example 299, 2{3-[3-(Morpholin-4-ylcarbonyl)-5,5-dioxidothiochromeno[4,3-c]pyrazol-1(4H)-yl]pyrrolidin-1-yl)ethyl acetate]	871
O=C(c1nn(C2CCCN(CCC3CCOCC3)C2)c2c1CS(=O)(=O)c1c(Cl)cccc1-2)N1CCOCC1 (stereo not drawn) [Example 301, 6-Chloro-3-(morpholin-4-ylcarbonyl)-1-{1-[2-(tetrahydro-2H-pyran-4-yl)ethyl]piperidin-3-yl}-1,4-dihydrothiochromeno[4,3-c]pyrazole 5.5-dioxide]	38
O=C(c1nn(C2CCN(CCN3CC[C@@H](F)C3)C2)c2c1CS(=O)(=O)c1ccccc1-2)N1CCOCC1 (stereo partly drawn) [Example 308, 1-(1-{2-[(3R)-3-Fluoropyrrolidin-1-yl]ethyl}pyrrolidin-3-yl)-3-(morpholin-4-ylcarbonyl)-1,4-dihydrothiochromeno[4,3-c]pyrazole 5,5-dioxide]	120
O=C(c1nn(C2CCCN(CCN3CCOCC3)C2)c2c1CS(=O)(=O)c1c(Cl)cccc1-2)N1CCOCC1 (stereo not drawn) [Example 309, 6-Chloro-3-(morpholin-4-ylcarbonyl)-1-[1-(2-morpholin-4-ylethyl)piperidin-3-yl]-1,4-dihydrothiochromeno[4,3-c]pyrazole 5,5-dioxide]	120
O=C(c1nn(C2CCN(CCN3CC[C@H](F)C3)C2)c2c1CS(=O)(=O)c1ccccc1-2)N1CCOCC1 (stereo partly drawn) [Example 310, 1-(1-{2-[(3S)-3-Fluoropyrrolidin-1-yl]ethyl}pyrrolidin-3-yl)-3-(morpholin-4-ylcarbonyl)-1,4-dihydrothiochromeno[4,3-c]pyrazole 5,5-dioxide]	192
O=C(c1nn(C2CCN(CCN3CC(F)(F)C3)C2)c2c1CS(=O)(=O)c1ccccc1-2)N1CCOCC1 (stereo not drawn) [Example 311, 1-{1-[2-(3,3-Difluoroazetidin-1-yl)ethyl]pyrrolidin-3-yl}-3-(morpholin-4-ylcarbonyl)-1,4-dihydrothiochromeno[4,3-c]pyrazole 5,5-dioxide]	156
COc1ccccc1-n1nc(C(=O)N2CCOCC2)c2c1-c1ccccc1S(=O)(=O)C2 [Example 313, 1-(2-Methoxyphenyl)-3-(morpholin-4-ylcarbonyl)-1,4-dihydrothiochromeno[4,3-c]pyrazole 5,5-dioxide]	14800

Results, then the compound that gave them:

IC50 [nM]	Compound
733	O=C(CC1CCOCC1)N1CCC(n2nc(C(=O)N3CCOCC3)c3c2-c2ccccc2S(=O)(=O)C3)C1 (stereo not drawn) [Example 287, 3-(Morpholin-4-ylcarbonyl)-1-[1-(tetrahydro-2H-pyran-4-ylacetyl)pyrrolidin-3-yl]-1,4-dihydrothiochromeno[4,3-c]pyrazole 5,5-dioxide]
488	O=C(c1nn(-c2cccc(Cn3cccn3)c2)c2c1CS(=O)(=O)c1ccccc1-2)N1CCOCC1 [Example 292, 3-(Morpholin-4-ylcarbonyl)-1-[3-(1H-pyrazol-1-ylmethyl)phenyl]-1,4-dihydrothiochromeno[4,3-c]pyrazole 5,5-dioxide]
353	O=C(c1nn(C2CCN(CC3CCOC3)C2)c2c1CS(=O)(=O)c1ccccc1-2)N1CCOCC1 (stereo not drawn) [Example 303, 3-(Morpholin-4-ylcarbonyl)-1-[1-(tetrahydrofuran-3-ylmethyl)pyrrolidin-3-yl]-1,4-dihydrothiochromeno[4,3-c]pyrazole 5,5-dioxide]
166	O=C(c1nn(C2CCN(CCn3ccnc3)C2)c2c1CS(=O)(=O)c1ccccc1-2)N1CCOCC1 (stereo not drawn) [Example 288, 1-{1-[2-(1H-Imidazol-1-yl)ethyl]pyrrolidin-3-yl}-3-(morpholin-4-ylcarbonyl)-1,4-dihydrothiochromeno[4,3-c]pyrazole 5,5-dioxide]
83	O=C(c1nn(C2CCCN(CCN3CCCC(F)(F)C3)C2)c2c1CS(=O)(=O)c1ccccc1-2)N1CCOCC1 (stereo not drawn) [Example 284, 1-{1-[2-(3,3-Difluoropiperidin-1-yl)ethyl]piperidin-3-yl}-3-(morpholin-4-ylcarbonyl)-1,4-dihydrothiochromeno[4,3-c]pyrazole 5,5-dioxide]
77	O=C(c1nn(C2CCN(C3CCOCC3)C2)c2c1CS(=O)(=O)c1ccccc1-2)N1CCOCC1 (stereo not drawn) [Example 300, 3-(Morpholin-4-ylcarbonyl)-1-[1-(tetrahydro-2H-pyran-4-yl)pyrrolidin-3-yl]-1,4-dihydrothiochromeno[4,3-c]pyrazole 5,5-dioxide]
57	O=C(c1nn(C2CCN(CC3CCOC3)C2)c2c1CS(=O)(=O)c1c(F)cccc1-2)N1CCOCC1 (stereo not drawn) [Example 304, 6-Fluoro-3-(morpholin-4-ylcarbonyl)-1-[1-(tetrahydrofuran-3-ylmethyl)pyrrolidin-3-yl]-1,4-dihydrothiochromeno[4,3-c]pyrazole 5,5-dioxide]
52	O=C(c1nn(C2CCCN(CCn3ccnc3)C2)c2c1CS(=O)(=O)c1ccccc1-2)N1CCOCC1 (stereo not drawn) [Example 297, 1-{1-[2-(1H-Imidazol-1-yl)ethyl]piperidin-3-yl}-3-(morpholin-4-ylcarbonyl)-1,4-dihydrothiochromeno[4,3-c]pyrazole 5,5-dioxide]
22	O=C(c1nn(C2CCCN(CCC3CCOCC3)C2)c2c1CS(=O)(=O)c1c(F)cccc1-2)N1CCOCC1 (stereo not drawn) [Example 280, 6-Fluoro-3-(morpholin-4-ylcarbonyl)-1-{1-[2-(tetrahydro-2H-pyran-4-yl)ethyl]piperidin-3-yl)-1,4-dihydrothiochromeno[4,3-c]pyrazole 5,5-dioxide]
21	O=C(c1nn(C2CCN(CCC3CCOCC3)C2)c2c1CS(=O)(=O)c1c(F)cccc1-2)N1CCOCC1 (stereo not drawn) [Example 302, 6-Fluoro-3-(morpholin-4-ylcarbonyl)-1-{1-[2-(tetrahydro-2H-pyran-4-yl)ethyl]pyrrolidin-3-yl}-1,4-dihydrothiochromeno[4,3-c]pyrazole 5,5-dioxide]
11	O=C(c1nn(C2CCCN(CC3CCOCC3)C2)c2c1CS(=O)(=O)c1ccccc1-2)N1CCOCC1 (stereo not drawn) [Example 305, 3-(morpholin-4-ylcarbonyl)-1-[1-(tetrahydro-2H-pyran-4-ylmethyl)piperidin-3-yl]-1,4-dihydrothiochromeno[4,3-c]pyrazole 5,5-dioxide]

same assay, conditions: inhibition at 20 μM

Compound	Best potency measured on the 4 PI3K isoforms, % inh @20 μM [% inh @20 μM]
CC(C)c1ccccc1-n1nc(C(=O)N2CCOCC2)c2c1-c1ccccc1S(=O)(=O)C2 [Example 312, 1-(2-Isopropylphenyl)-3-(morpholin-4-ylcarbonyl)-1,4-dihydrothiochromeno[4,3-c]pyrazole 5,5-dioxide]	47
CS(=O)(=O)c1ccccc1-n1nc(C(=O)N2CCOCC2)c2c1-c1ccccc1S(=O)(=O)C2 [Example 314]	45
